Measurements taken from publication PMC8951750, “In Vitro Anticancer and Cancer-Preventive Activity of New Triterpene Glycosides from the Far Eastern Starfish Solaster pacificus” (Marine Drugs, 2022).
Several values for one entry are separate records, joined by “and”; a condition that tells them apart may be missing. Equal entries are not always repeated. Where two headings read alike, the source gives them in different places.

How the values were obtained:
[1] = test system: non-cancerous mouse epidermal cells JB6 Cl41; assay: Cell viability, MTS assay, JB6 Cl41; type: cell-based
Protocol: (§1) MTS assay was used to measure the cell viability of tested normal and cancer cells. Cells were seeded into 96-well plates (“Jet Biofil”, Guangzhou, China) at density of 1.0 × 10^4/200 µL for 24 h at 37 °C in a 5% CO2 incubator. Then, cell monolayer was treated either with DMSO (control) or various concentrations of the triterpene glycosides 1–9 from S. pacificus (0.1, 0.5, 2.5, 12.5, 62.5 µM) in fresh appropriate culture medium for 24 h. Subsequently, the cells were incubated with 15 µL of 3-(4,5-dimethylthiazol-2-yl)-5-(3-carboxymethoxyphenyl)-2-(4-sulfophenyl)-2H-tetrazolium (MTS reagent) (“Promega”, Madison, WI, USA) for 3 h, and the absorbance of each well was measured at 490/630 nm using Power Wave XS microplate reader (“BioTek”, Wynusky, VT, USA). The concentration at which the compounds exert half of their maximal inhibitory effect on cell viability (IC50) was calculated by the AAT-Bioquest® online calculator [39]. The selectivity index (SI) was calculated as described previously using the following formula SI = IC50 of the compounds in normal cell (JB6 Cl41)/IC50 of the same compounds in human melanoma cell lines (SK-MEL-2, SK-MEL-28, or RPMI-7951).

[2] = test system: human melanoma cells SK-MEL-2; assay: Cell viability, MTS assay, SK-MEL-2; type: cell-based; conditions: for SI (selectivity index) SK-MEL-2: IC50 JB6 Cl41 / IC50 SK-MEL-2
Protocol: as §1

[3] = test system: human melanoma cells SK-MEL-28; assay: Cell viability, MTS assay, SK-MEL-28; type: cell-based; conditions: for IC50: Homo sapiens, SK-MEL-28, 24 h; for SI (selectivity index) SK-MEL-28: IC50 JB6 Cl41 / IC50 SK-MEL-28
Protocol: as §1

[4] = test system: human melanoma cells RPMI-7951; assay: Cell viability, MTS assay, RPMI-7951; type: cell-based; conditions: for IC50: Homo sapiens, RPMI-7951, 24 h; for SI (selectivity index) RPMI-7951: IC50 JB6 Cl41 / IC50 RPMI-7951
Protocol: as §1

[5] = test system: Human erythrocytes (O(I)+); assay: Hemolysis assay; type: cell-based; conditions: 1 h, 37 °C, PBS pH 7.4
Protocol: Human erythrocytes (O(I)+) were obtained from Vladivostok blood transfusion station. Erythrocytes were centrifuged with PBS (pH 7.4) for 5 min at 4 °C by 450× g on a LABOFUGE 400R (Heraeus, Hanau, Germany) centrifuge three times. Then, the residue of erythrocytes was resuspended in ice-cold PBS (pH 7.4) to a final optical density of 2.0 at 700 nm and kept on ice. For the hemolytic assay, 180 µL of erythrocyte suspension was mixed with 20 µL of Cucumarioside A2-2 (positive control) and investigated compounds at concentrations range of 0.1, 0.5, 1, 5, 10 µM in V-bottom 96-well plates. After 1 h of incubation at 37 °C, plates were centrifuged at 900× g for 10 min on an LMC-3000 (Biosan, Riga, Latvia) laboratory centrifuge. Then, we carefully selected 100 µL of supernatant and transferred it to new flat plates, respectively. Lysis of erythrocytes was determined by measuring the concentration of hemoglobin in the supernatant with a microplate photometer Multiskan FC (Thermo Fisher Scientific, Waltham, MA, USA) at 570 nm. The effective dose causing 50% of erythrocytes hemolysis (ED50) was calculated using the computer program SigmaPlot 10.0. All experiments were made in triplicate, p < 0.01.

JB6 Cl41 cells [6] = assay: Soft agar assay, EGF-induced neoplastic cell transformation; type: cell-based, mouse; conditions: compound 0.1 µM, EGF 1 ng/mL, soft agar, 2 weeks, vs positive control; for inhibition at 0.1 µM: Mus musculus, JB6 Cl41, 336 h, read-out: inhibition of EGF-induced neoplastic transformation of JB6 Cl41 cells
Protocol: (§2) JB6 Cl41 cells (2.4 × 10^4) were exposed to epidermal growth factor (EGF) (1 ng/mL) or phorbol 12-myristate 13-acetate (TPA) (10 ng/mL) and treated either with DMSO (control) or the triterpene glycosides 1–9 from S. pacificus (0.1, 0.5, and 1 µM) in 1 mL of 0.3% basal medium Eagle (BME) agar containing 10% FBS, 2 mM L-glutamine, and 25 µg/mL gentamicin (agar mix). The cultures were maintained in a humidified atmosphere with 5% CO2 at 37 °C for 14 days, and the cell’s colonies were scored using a microscope, Motic AE 20 (XiangAn, Xiamen, China), and the ImageJ software bundled with 64-bit Java 1.8.0_112 (NIH, Bethesda, MD, USA). To determine the effect of investigated compounds on neoplastic cell transformation induced by ionizing radiation (X-ray or UVB), JB6 Cl41 cells (3 × 10^5/dish) were seeded in 60 mm dishes and cultured for 24 h at 37 °C in 5% CO2 incubator. Then, the cells were exposed to X-rays (X-ray system XPERT 80 (KUB Technologies, Inc, Milford, CT, USA)) at dose of 0.5 Gy or UVB (wavelengths below 312 nm) (Bio-Link UV irradiation system, Vilber, France) at dose of 0.3 J/cm^2 three times a week for 3 weeks. Irradiated JB6 Cl41 cells (2.4 × 10^4) were treated either with DMSO (control) or the triterpene glycosides 1–9 from S. pacificus (0.1, 0.5, and 1 µM) in 1 mL of agar mix. The cultures were maintained in a humidified atmosphere with 5% CO2 at 37 °C for 14 days, and the cell’s colonies were scored using a microscope, Motic AE 20 (XiangAn, Xiamen 361101, China), and the ImageJ software bundled with 64-bit Java 1.8.0_112 (NIH, Bethesda, MD, USA).

JB6 Cl41 cells [7] = assay: Soft agar assay, TPA-induced neoplastic cell transformation; type: cell-based, mouse; conditions: compound 0.1 µM, TPA 10 ng/mL, soft agar, 2 weeks, vs positive control; for inhibition at 0.1 µM: Mus musculus, JB6 Cl41, 336 h, read-out: inhibition of TPA-induced neoplastic transformation of JB6 Cl41 cells
Protocol: as §2

JB6 Cl41 cells [8] = assay: Soft agar assay, X-ray-induced neoplastic cell transformation; type: cell-based, mouse; conditions: Mus musculus, JB6 Cl41, 504 h
Protocol: as §2

JB6 Cl41 cells [9] = assay: Soft agar assay, UVB-induced neoplastic cell transformation; type: cell-based, mouse; conditions: for inhibition at 0.1 µM: Mus musculus, JB6 Cl41, light or radiation study, 504 h
Protocol: as §2

SK-MEL-2 cells = assay: Soft agar assay, colony formation of cancer cells; type: cell-based, human; conditions: compound 0.1 µM, 14 days
Protocol: SK-MEL-2 cells (2.4 × 10^4) were treated either with DMSO (control) or the triterpene glycosides 1–9 from S. pacificus (0.1 µM) in 1 mL of agar mix. After 14 days, colonies of cancer cells were scored as described above.

[10] = Mus musculus, JB6 Cl41, 24 h, MTS assay, 24 h, normal cells, read-out: IC50, cell viability JB6 Cl41
[11] = Homo sapiens, SK-MEL-2, 24 h, MTS assay, 24 h, read-out: IC50, cell viability SK-MEL-2
[12] = MTS assay, 24 h, read-out: IC50, cell viability SK-MEL-2
[13] = MTS assay, 24 h, read-out: IC50, cell viability SK-MEL-28
[14] = MTS assay, 24 h, read-out: IC50, cell viability RPMI-7951
[15] = compound 0.1 µM, X-rays 0.5 Gy three times a week for 3 weeks, soft agar, read-out: inhibition of X-ray-induced cell transformation (JB6 Cl41 colonies formation)
[16] = compound 0.1 µM, UVB 0.3 J/cm^2 three times a week for 3 weeks, soft agar, read-out: inhibition of UVB-induced neoplastic cell transformation (decrease of colonies number)

SMILES | IC50 [1, 10] [µM] | IC50 [2, 11] [nM] | SI (selectivity index) SK-MEL-2 [2] | IC50 [2, 12] [nM] | IC50 [3, 13] [µM] | SI (selectivity index) SK-MEL-28 [3] | IC50 [4, 14] [µM] | SI (selectivity index) RPMI-7951 [4] | ED50, effective dose causing 50% of erythrocytes hemolysis [5] | inhibition at 0.1 µM (JB6 Cl41 cells [6]) [%] | inhibition at 0.1 µM (JB6 Cl41 cells [7]) [%] | inhibition at 0.1 µM (JB6 Cl41 cells [8]; [15]) [%] | inhibition at 0.1 µM (JB6 Cl41 cells [9]; [16]) [%] | decrease of colonies number of SK-MEL-2 cells (colony formation) (SK-MEL-2 cells) [%] | further results
COC1C(O)C(CO)OC(OC2C(O)C(CO)OC(OC3C(C)OC(OC4C(OC5CCC6(C)C7CCC89C(=O)OC(C)(C=CC=C(C)C)C8C(OC(C)=O)CC9(C)C7=CCC6C5(C)C)OCC(O)C4O)C(OC4OCC(O)C(O)C4O)C3O)C2O)C1O [Compound 1, 3β-O-{3-O-methyl-β-D-glucopyranosyl-(1→3)-β-D-glucopyranosyl-(1→4)-[β-D-xylopyranosyl-(1→2)]-β-D-quinovopyranosyl-(1→2)-β-D-xylopyranosyl}-16β-acetoxyholosta-7,22E,24-triene] | 6.4 ± 0.05 | < 1000 | 9.1 | 700 ± 70 | 8.4 ± 0.07 | 0.8 | 26.7 ± 0.1 | 0.24 | 2.03 µM and 2.03 ± 0.19 µM | 94 | 98 | 94 | 96 | 64 | 
CC(=O)OC1CC2(C)C3=CCC4C(C)(C)C(OC5OCC(O)C(O)C5OC5OC(C)C(OC6OC(CO)C(O)C(O)C6O)C(O)C5OC5OCC(O)C(O)C5O)CCC4(C)C3CCC23C(=O)OC(C)(C=CC=C(C)C)C13 [Compound 2, 3β-O-{β-D-glucopyranosyl-(1→4)-[β-D-xylopyranosyl-(1→2)]-β-D-quinovopyranosyl-(1→2)-β-D-xylopyranosyl}-16β-acetoxyholosta-7,22E,24-triene] |  | 37600 ± 200 | 0.8 |  | 29 ± 0.02 | 1.0 | 36.4 ± 0.2 | 0.87 | 4.08 ± 0.36 µM | 25 | 18 | < 15 |  | 3 | IC50 ([1]; MTS assay, 24 h, normal cells, read-out: IC50, cell viability JB6 Cl41): 31.5 ± 4.1 µM; inhibition of UVB-induced neoplastic cell transformation (decrease of colonies number) (JB6 Cl41 cells [9]; compound 0.1 µM, UVB 0.3 J/cm^2 three times a week for 3 weeks, soft agar): not effective
COC1C(O)COC(OC2C(O)C(COS(=O)(=O)O)OC(OC3C(C)OC(OC4C(OC5CCC6(C)C7CCC89C(=O)OC(C)(C=CC=C(C)C)C8C(OC(C)=O)CC9(C)C7=CCC6C5(C)C)OCC(O)C4O)C(O)C3O)C2O)C1O [Compound 3, 3β-O-{3-O-methyl-β-D-xylopyranosyl-(1→3)-6-sulfoxy-β-D-glucopyranosyl-(1→4)-β-D-quinovopyranosyl-(1→2)-β-D-xylopyranosyl}-16β-acetoxyholosta-7,22E,24-triene] |  |  | 8.8 |  |  | 0.4 |  | 0.22 | 0.72 µM and 0.72 ± 0.05 µM |  |  |  |  | 34 | IC50 ([1]; Mus musculus, JB6 Cl41, 24 h, read-out: IC50, cell viability JB6 Cl41, MTS assay, 24 h, normal cells): 6 ± 0.1 µM; IC50 ([2]; Homo sapiens, SK-MEL-2, 24 h, read-out: IC50, cell viability SK-MEL-2, MTS assay, 24 h): < 1000 nM; IC50 ([2]; read-out: IC50, cell viability SK-MEL-2, MTS assay, 24 h): 680 ± 60 nM; IC50 ([3]; read-out: IC50, cell viability SK-MEL-28, MTS assay, 24 h): 14.8 ± 0.03 µM; IC50 ([4]; read-out: IC50, cell viability RPMI-7951, MTS assay, 24 h): 27.9 ± 0.09 µM; inhibition of EGF-induced neoplastic transformation of JB6 Cl41 cells (JB6 Cl41 cells [6]; 0.1 µM): 70%; inhibition of TPA-induced neoplastic transformation of JB6 Cl41 cells (JB6 Cl41 cells [7]; 0.1 µM): 36%; inhibition at 0.1 µM (JB6 Cl41 cells [8]; read-out: inhibition of X-ray-induced cell transformation (JB6 Cl41 colonies formation), compound 0.1 µM, X-rays 0.5 Gy three times a week for 3 weeks, soft agar): 26%; inhibition at 0.1 µM (JB6 Cl41 cells [9]; read-out: inhibition of UVB-induced neoplastic cell transformation (decrease of colonies number), compound 0.1 µM, UVB 0.3 J/cm^2 three times a week for 3 weeks, soft agar): 13%
C=C(C)C1C2CC3(C)C4=CCC5C(C)(C)C(OC6OCC(O)C(O)C6OC6OC(C)C(OC7OC(COS(=O)(=O)O)C(O)C(OC8OCC(O)C(OC)C8O)C7O)C(O)C6O)CCC5(C)C4CCC13C(=O)O2 [Compound 9, 3β-O-{3-O-methyl-β-D-xylopyranosyl-(1→3)-6-O-6-sulfoxy-β-D-glucopyranosyl-(1→4)-β-D-quinovopyranosyl-(1→2)-β-D-xylopyranosyl}-23,24,25,26,27-pentanor-5α-lanosta-7,20(22)-diene-18(16)-lactone] | 7.4 ± 0.8 | < 1000 | 9.9 | 750 ± 30 | 23.3 ± 0.6 | 0.32 | 32.4 ± 0.08 | 0.23 | 2.85 ± 0.14 µM | 34 | 42 | 28 | 11 |  | 
C=C(C)CCCC1(C)OC(=O)C23CCC4C(=CCC5C(C)(C)C(OC6OCC(OS(=O)(=O)[O-])C(O)C6OC6OC(C)C(OC7OC(CO)C(O)C(OC8OC(CO)C(O)C(OC)C8O)C7O)C(O)C6OC6OCC(O)C(O)C6O)CCC45C)C2(C)CC(=O)C13.[Na+] (stereo not shown) [Cucumarioside A2-2, reference compound] |  |  |  |  |  |  |  |  | 0.95 ± 0.04 µM |  |  |  |  |  | 
